Experimental data taken from patent publication US20240366623A1, “COMPOSITIONS FOR PREVENTING OR TREATING CHARCOT-MARIE-TOOTH DISEASE (CMT)” (Chong Kun Dang Pharmaceutical Corp., priority 2021, published 2024).

How the values were obtained:
C3 CMT1A mice [1] = experiment: Electrophysiological evaluation of sensory nerves in C3 CMT1A mice; assay type: in vivo, mouse; settings: tail
Method: Ten-week-old CMT1A mice were prepared in the same way as shown in Experimental Example 8-1. Particularly, the mice were separated and dosed with a vehicle or drug in the same manner as in table 12, and the number of mice in each group was five mice.
To perform an electrophysiological evaluation of sensory nerves, a stimulation cathode was placed at the tip of the tail of the mouse, a recording electrode was placed on the tail proximal to the body 30 mm from the stimulation cathode, and a ground electrode was also placed on a leg of the animal. The tail was stimulated to obtain sensory nerve conduction velocity (SNCV) and sensory nerve action potential (SNAP) amplitude values.
Data were represented as mean±SEM([…]). Statistical significance between groups was tested using one-way ANOVA and post hoc analysis was performed by Dunnett's test. All statistical analyses were performed with GraphPad Prism 9.0.

C3 CMT1A mice [2] = experiment: Histopathologic evaluation of sural nerves in C3 CMT1A mice; assay type: in vivo, mouse
Method: Ten-week-old C3 CMT1A mice were provided with a standard diet (Central Lab Animal, Inc.) and water ad libitum and were housed in a controlled environment with a temperature of 22±2° C., a humidity of 44-56% and a 12-hour light-dark cycle. All experimental procedures were approved and performed according to the Institutional Animal Care and Use Committee (IACUC) of the Korea CKD Laboratory Animal Center (with an approved number: S-17_033).
Vehicle is 0.5% […] (MC), and each group was administered vehicle or compound 43 for eight weeks. TG or C3 refers to C3 CMT1A mice; a wild type (WT) is a group in which only vehicle is administered to normal mice; Vehicle(C3) or C3 group is a group in which only vehicle is administered to C3 CMT1A mice; and compound 43 is a group in which compound 43 is administered to C3 CMT1A mice with five animals in each group.
At eight weeks after administering vehicle or drug (compound 43), the sural nerves were collected at 0.5 hours after the final drug administration and then fixed overnight in 2.5% glutaraldehyde solution. The fixed samples were subjected to general tissue processing for image analysis, sectioned with a thickness of […], and stained with toluidine blue. Histological evaluation was performed on imaging files taken with an optical microscopy. In each sample, morphological changes of myelin, such as demyelination, remyelination, etc., and pathological changes, including a reduction in axon diameter, were evaluated. The axon and myelin diameters were analyzed with Image J software and a G-ratio thereof was calculated as the ratio of an internal axon diameter to a total external diameter, and the results are shown in FIGS. 21 to 23.
Data were represented as mean±SEM. Statistical significance between groups was tested using one-way ANOVA and post hoc analysis was performed by Dunnett's test. All statistical analyses were performed with GraphPad Prism 9.0.

[3] = 10 mg/Kg PO BID eight weeks (FIG. 21)

O=C(N1CCS(=O)(=O)CC1)N(Cc1ccc(-c2nnc(C(F)F)o2)cn1)c1ccccc1 [Compound 43, N-((5-(5-(difluoromethyl)-1,3,4-oxadiazol-2-yl)pyridin-2-yl)methyl)-N-phenylthiomorpholine-4-carboxamide 1,1-dioxide] was tested, and the “sensory nerve conduction velocity (SNCV)” value (C3 CMT1A mice [1]; 10 mg/Kg PO BID eight weeks (FIG. 24)) was “significantly increased”, the “sensory nerve action potential (SNAP) amplitude” value (C3 CMT1A mice [1]; 10 mg/Kg PO BID eight weeks (FIG. 25)) was “significantly increased” and the “axon diameter (sural nerve)” value (C3 CMT1A mice [2]; [3]) was “increased”. For the same compound, the “myelin sheath thickness (sural nerve)” value (C3 CMT1A mice [2]; [3]) was “increased”, the “slope of g-ratio (sural nerve)” value (C3 CMT1A mice [2]; 10 mg/Kg PO BID eight weeks (FIG. 22)) was “lower slope than that of vehicle-treated animals” and the “proportion of axons with a large diameter (sural nerve)” value (C3 CMT1A mice [2]; 10 mg/Kg PO BID eight weeks (FIG. 23)) was “tendency to increase”.
